Measurements taken from PMC8582576, “New Therapeutic Strategy for Overcoming Multidrug Resistance in Cancer Cells with Pyrazolo[3,4-d]pyrimidine Tyrosine Kinase Inhibitors” (Cancers, 2021).
Several values for one entry are separate records, joined by “and”; a condition that tells them apart may be missing. Equal entries are not always repeated. Entries after “also recorded” stand apart in the source; their conditions may differ.

Columns and labels:
DLD1-TxR [1] = assay: MTT assay, reversal of PTX resistance in DLD1-TxR cells; format: cell-based, human; settings: IC50 PTX alone / IC50 in combination
Protocol: (§1) The metabolic activity of viable cells was measured by MTT assay. Cells grown in 25 cm^2 tissue flasks were trypsinized, seeded into flat-bottomed 96-well tissue culture plates, and incubated overnight. Subsequently, the cells were treated with increasing concentrations of Si306, pro-Si306, and dasatinib (1–25 μM), as well as with Si221 and pro-Si221 (2.5–50 μM) for 72 h. In addition, the combined effects of Si306, pro-Si306, and pro-Si221with DOX as well as with PTX were studied in NCI-H460/R and DLD1-TxR cells, respectively. In simultaneous treatments that lasted 72 h in NCI-H460/R and DLD1-TxR cells, two concentrations of Si306, pro-Si306, and pro-Si221 (0.2 μM and 0.5 μM) were combined with increasing concentrations of DOX and PTX (0.1–2 μM). After treatment, MTT was added to each well at a final concentration of 0.2 mg/mL for 3 h. Then, formazan produced in cells with intact/viable mitochondria was dissolved in 200 μL of DMSO, and the absorbance was measured at 570 nm on a Multiskan Sky Microplate Spectrophotometer (ThermoFisher Scientific, United States). The IC50 value is defined as the concentration of a drug that decreases cell viability by 50% and was calculated by nonlinear regression analysis using GraphPad Prism 6.0 for Windows (La Jolla, CA, USA). Relative reversal was calculated as a relation between the IC50 values of DOX and PTX alone obtained in NCI-H460/R and DLD1-TxR cells, respectively and the IC50 values of DOX and PTX in combination with Pro-Si306 and Pro-Si221.

P-gp expression [2] = assay: Flow cytometric analysis of P-gp expression in DLD1-TxR cells; format: cell-based, human; settings: 48-h treatment, Si306, pro-Si306 5 and 10 µM, pro-Si221 1 and 2 µM, TQ 5 and 10 nM
Protocol: (§2) The P-gp expression level in NCI-H460/R and DLD1-TxR was measured by flow cytometry. […] After 48 h, cells were collected by trypsinization, washed in PBS, and then directly immuno stained by FITC-conjugated anti-P-gp antibody according to the manufacturer’s protocol.

NCI-H460 = assay: MTT cell viability assay, NCI-H460; format: cell-based; settings: Homo sapiens, 72 h, read-out: Decrease in cell viability, IC50
Protocol: as §1

[3] = system: NCI-H460, NCI-H460/R, DLD1, DLD1-TxR; assay: MTT cell viability assay, two sensitive/MDR cancer cell line pairs; format: cell-based; settings: Homo sapiens, summary over the four cell lines, 72 h
Protocol: as §1

P-gp [4] = biological target: T1, P-gp (Homo sapiens, UniProt P08183); assay: Rho 123 accumulation assay (P-gp activity) in DLD1-TxR cells; settings: for P-gp inhibition by Rho 123 intracellular accumulation / kinetics of P-gp inhibition (Rho123 accumulation) / IC50: DLD1-TxR; for P-gp inhibition by Rho 123 intracellular accumulation: 10 µM, 30-min treatment, compared with Dex-VER; for kinetics of P-gp inhibition (Rho123 accumulation): 24-, 48-, 96-, 168-h treatments, 10 µM pro-Si306, 1 and 2 µM pro-Si221, 5 and 10 nM TQ; for IC50: IC50 for P-gp inhibition, Rho123 accumulation, 30 min
T1 sequence (P08183 whole entry): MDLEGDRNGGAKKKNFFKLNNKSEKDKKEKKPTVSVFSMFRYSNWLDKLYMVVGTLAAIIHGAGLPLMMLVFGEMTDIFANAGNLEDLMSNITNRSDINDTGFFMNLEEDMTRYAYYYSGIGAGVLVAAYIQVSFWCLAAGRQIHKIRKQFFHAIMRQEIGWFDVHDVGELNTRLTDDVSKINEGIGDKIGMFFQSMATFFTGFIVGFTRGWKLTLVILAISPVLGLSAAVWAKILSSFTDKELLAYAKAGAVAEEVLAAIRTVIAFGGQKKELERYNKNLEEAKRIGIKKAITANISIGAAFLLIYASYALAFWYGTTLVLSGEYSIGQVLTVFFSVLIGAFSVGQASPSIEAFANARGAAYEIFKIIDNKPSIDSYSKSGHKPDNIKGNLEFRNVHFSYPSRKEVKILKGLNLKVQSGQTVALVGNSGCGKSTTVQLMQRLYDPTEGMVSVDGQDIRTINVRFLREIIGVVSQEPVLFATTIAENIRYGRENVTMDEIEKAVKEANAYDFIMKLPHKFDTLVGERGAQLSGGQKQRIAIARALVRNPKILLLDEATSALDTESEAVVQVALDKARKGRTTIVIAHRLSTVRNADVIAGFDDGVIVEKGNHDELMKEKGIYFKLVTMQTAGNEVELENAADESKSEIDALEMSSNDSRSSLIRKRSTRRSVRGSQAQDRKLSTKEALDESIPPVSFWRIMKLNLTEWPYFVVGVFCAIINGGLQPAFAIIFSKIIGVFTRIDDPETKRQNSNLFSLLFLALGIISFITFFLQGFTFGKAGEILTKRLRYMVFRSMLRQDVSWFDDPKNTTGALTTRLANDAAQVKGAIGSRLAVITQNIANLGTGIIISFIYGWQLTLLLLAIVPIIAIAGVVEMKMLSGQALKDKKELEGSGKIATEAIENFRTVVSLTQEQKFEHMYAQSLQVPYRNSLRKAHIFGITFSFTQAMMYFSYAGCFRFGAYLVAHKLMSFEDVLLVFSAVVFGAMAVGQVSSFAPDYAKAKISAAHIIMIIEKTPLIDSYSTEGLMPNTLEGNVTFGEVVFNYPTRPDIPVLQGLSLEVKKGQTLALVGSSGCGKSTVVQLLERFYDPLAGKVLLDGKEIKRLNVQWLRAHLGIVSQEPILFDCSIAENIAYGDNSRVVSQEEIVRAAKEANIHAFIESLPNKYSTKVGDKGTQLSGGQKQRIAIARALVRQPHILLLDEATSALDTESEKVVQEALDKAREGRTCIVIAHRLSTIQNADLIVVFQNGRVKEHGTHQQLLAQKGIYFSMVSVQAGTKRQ
Protocol: (§3) The accumulation of fluorescent P-gp substrate Rho 123 was analyzed by flow cytometry. The intensity of fluorescence was proportional to Rho 123 accumulation in the cell. […] NCI-H460 and DLD1 cells were used as a positive control for Rho 123 accumulation. All cell lines were seeded in adherent 6-well plates and grown overnight. In simultaneous treatment that lasted 30 min, 5 μM Rho 123 was applied along with 10 μM of Si306, pro-Si306, Si221, pro-Si221, dasatinib, and Dex-VER. […] Samples were incubated for 30 min at 37 °C in 5% CO2. […] At the end of the accumulation period, the cells were trypsinized, pelleted by centrifugation, washed with PBS, and placed in ice-cold PBS. The samples were kept on ice in the dark until analysis on a CyFlow Space Partec flow cytometer (Sysmex Partec GmbH, Görlitz, Germany). The fluorescence of Rho 123 was detected on fluorescence channel 1 (FL1-H) at 530 nm. Three independent experiments were performed for each experimental setting. A minimum of 10,000 events was assayed for each sample, and the obtained results were analyzed using Summit Dako Software (ver. 4.3, Fort Collins, CO, USA).

NCI-H460/R [5] = assay: MTT cell viability assay, NCI-H460/R; format: cell-based, human; settings: for IC50: Homo sapiens, NCI-H460/R (MDR), MTT, 72 h, read-out: Decrease in cell viability, IC50; for fold lower IC50 in MDR NCI-H460/R than in sensitive NCI-H460 cells: NCI-H460/R vs NCI-H460, MTT
Protocol: as §1

DLD1 = assay: MTT cell viability assay, DLD1; format: cell-based; settings: Homo sapiens, DLD-1, 72 h, read-out: Decrease in cell viability, IC50
Protocol: as §1

DLD1-TxR [6] = assay: MTT cell viability assay, DLD1-TxR; format: cell-based; settings: Homo sapiens, DLD1-TxR (MDR), 72 h, read-out: Decrease in cell viability, IC50
Protocol: as §1

NCI-H460/R [7] = assay: MTT assay, reversal of DOX resistance in NCI-H460/R cells; format: cell-based, human; settings: IC50 DOX alone / IC50 in combination
Protocol: as §1

P-gp expression [8] = assay: Flow cytometric analysis of P-gp expression in NCI-H460/R cells; format: cell-based, human; settings: 48-h treatment, Si306, pro-Si306 5 and 10 µM, pro-Si221 1 and 2 µM, TQ 5 and 10 nM
Protocol: as §2

P-gp [9] = biological target: T1, P-gp; assay: Rho 123 accumulation assay (P-gp activity) in NCI-H460/R cells; settings: for IC50: IC50 for P-gp inhibition, Rho123 accumulation, 30 min; for IC50 / P-gp inhibition by Rho 123 intracellular accumulation / kinetics of P-gp inhibition (Rho123 accumulation): NCI-H460/R; for P-gp inhibition by Rho 123 intracellular accumulation: 10 µM, 30-min treatment, compared with Dex-VER; for kinetics of P-gp inhibition (Rho123 accumulation): 24-, 48-, 96-, 168-h treatments, 10 µM pro-Si306, pro-Si221, 5 and 10 nM TQ
Protocol: as §3

P-gp [10] = biological target: T1, P-gp; assay: P-gp ATPase activity assay (Pgp-Glo); format: biochemical; set-up: purchased Promega, Madison, WI, USA; settings: 5 µM and 20 µM; verapamil positive control
Protocol: P-gp function depends on ATP hydrolysis energy, and compounds that interact with P-gp can stimulate or inhibit its ATPase activity. P-gp ATPase activity is usually stimulated by its substrates. The Pgp-GloTM assay system detects a compound’s effect on recombinant human P-gp in a cell membrane fraction. P-gp ATPase activity was measured using the luminescent Pgp-Glo^TM assay kit according to manufacturer’s instructions. Briefly, ATP was first incubated with P-gp; then, the P-gp ATPase reaction was stopped, and the remaining un-metabolized ATP was detected as a luciferase-generated luminescent signal. P-gp-dependent decreases in luminescence reflect ATP consumption by P-gp; thus, the greater the decrease in signal, the higher the P-gp activity. […] Na3VO4 is a noncompetitive inhibitor of P-gp ATPase activity. The difference in the luminescent signal, expressed as relative light units (RLU), between Na3VO4-treated samples and untreated samples represents the basal P-gp ATPase activity (ΔRLU basal). The difference in the luminescent signal between Na3VO4-treated samples and samples treated with the tested compounds represents P-gp ATPase activity in the presence of the tested compounds. […] The luminescence of samples treated with 5 μM and 20 μM of Si306, pro-Si306, and pro-Si221 was measured using a luminometer microplate reader (CHAMELEONTMV, Hidex, Turku, Finland).

| SMILES | Relative Reversal of PTX resistance (DLD1-TxR [1]; SFK inhibitor 0.2 µM) | Relative Reversal of PTX resistance (DLD1-TxR [1]; SFK inhibitor 0.5 µM) | effect on P-gp expression (protein level) (P-gp expression [2]) | IC50 (NCI-H460) [µM] | IC50 [3] [µM] | P-gp inhibition by Rho 123 intracellular accumulation (P-gp [4]) | kinetics of P-gp inhibition (Rho123 accumulation) (P-gp [4]) | IC50 (P-gp [4]) | IC50 (NCI-H460/R [5]) [µM] | IC50 (DLD1) [µM] | IC50 (DLD1-TxR [6]) [µM] | Relative Reversal of DOX resistance (NCI-H460/R [7]; SFK inhibitor 0.2 µM) | Relative Reversal of DOX resistance (NCI-H460/R [7]; SFK inhibitor 0.5 µM) | effect on P-gp expression (protein level) (P-gp expression [8]) | IC50 (P-gp [9]) | P-gp inhibition by Rho 123 intracellular accumulation (P-gp [9]) | kinetics of P-gp inhibition (Rho123 accumulation) (P-gp [9]) | effect on ATPase activity of P-gp (P-gp [10]) | fold lower IC50 in MDR NCI-H460/R than in sensitive NCI-H460 cells (NCI-H460/R [5]) | further results |
| --- | --- | --- | --- | --- | --- | --- | --- | --- | --- | --- | --- | --- | --- | --- | --- | --- | --- | --- | --- | --- |
| CN1CCN(CCOC(=O)N(Cc2ccccc2Cl)c2ncnc3c2cnn3CC(Cl)c2ccc(Br)cc2)CC1 (stereo not shown) [Pro-Si221] | 2.0 | 3.2 | tendency to decrease the P-gp expression | 4.27 ± 0.509 | < 10 | considerably more potent than that observed with Dex-VER | decline until 96 h when it reached stable P-gp inhibition | 0.669 ± 0.061 µM | 5.14 ± 0.573 | 9.8 ± 1.15 | 5.7 ± 0.543 | 1.8 | 7.1 | less pronounced effect on the increase in P-gp expression | 0.612 ± 0.072 µM | considerably more potent than that observed with Dex-VER | continued to decrease until 48 h when it reached stability and was sustained even after 168 h | potential to inhibit the ATPase activity of P-gp; also recorded: highest inhibitory effect on ATPase activity | – | inhibition at 30 min, 1 µM (P-gp [4]; human, DLD1-TxR cells, probe Rho 123 (5 µM)): 100%; inhibition at 30 min, 1 µM (P-gp [9]; human, NCI-H460/R cells, probe Rho 123 (5 µM)): 100% |
| ClC(Cn1ncc2c(Nc3cccc(Br)c3)nc(SCCN3CCOCC3)nc21)c1ccccc1 (stereo not shown) [Si306] | – | – | tendency to decrease the P-gp expression | 6.24 ± 0.685 | < 10 | considerably more potent than that observed with Dex-VER | – | 6.4 µM and 6.44 µM | 1.89 ± 0.184 | 3.93 ± 0.679 | 2.56 ± 0.183 | – | – | significantly increased P-gp expression | 13.3 µM | considerably more potent than that observed with Dex-VER | – | potential to inhibit the ATPase activity of P-gp | more than 2 fold | – |
| CN1CCN(CCOC(=O)N(c2cccc(Br)c2)c2nc(SCCN3CCOCC3)nc3c2cnn3CC(Cl)c2ccccc2)CC1 (stereo not shown) [Pro-Si306] | 1.5 | 2.5 | tendency to decrease the P-gp expression | 2.41 ± 0.376 | < 10 | considerably more potent than that observed with Dex-VER | reached stability after 96 h | 3 µM and 2.95 µM | 0.897 ± 0.102 | 2.45 ± 0.346 | 1.87 ± 0.128 | 3.2 | 10.2 | less pronounced effect on the increase in P-gp expression | 6.2 µM and 6.17 µM | considerably more potent than that observed with Dex-VER | reached stability after 96 h | potential to inhibit the ATPase activity of P-gp | more than 2 fold | – |
